Columns and labels:
[1] = test system: bovine serum albumin (BSA); test: Adjuvant character in the aqueous phase: anti-body level by passive hemagglutination after BSA with the substance; assay type: in vivo; details: Swiss mice, SC; for Log2 hemagglutinating titer, Primary response D 28: 0.5 mg BSA with 0.1 mg substance in isotonic saline, before booster; for Log2 hemagglutinating titer, Secondary response D 36: 0.5 mg BSA with 0.1 mg substance, booster 0.1 mg BSA thirty days later, six days after booster
Experimental: Groups of 8 Swiss mice aged two months receive, by sub-cutaneous injection (SC), 0.5 mg of antigen constituted by bovine serum albumin (BSA) with (0.1 mg) or without the substance under test in an isotonic saline solution. This high dose of antigen, because it is situated at the limit of the paralysing dose with respect to the immune response, results, through this fact, in a weak or nul response to the antigen alone in the controls; it constitutes therefore a severe criterion to establish the activity of an adjuvant substance. Thirty days later, the mice receive, by the same route of administration, a booster containing 0.1 mg of the same antigen.
The anti-body level is determined, before and six days after the booster, by passive hemagglutination using sheep's red blood cells treated with formalin and covered with the antigen under study according to the method described by A. A. HIRATA and M. W. BRANDISS (J. Immunol., 100, 641-648, 1968).
The anty-body titer, represented by the maximum serum dilution agglutinating a given amount of sheep's red blood cells reaches a maximum at the 36th day following the first injection and is estblished in the following manner.

[2] = test system: Ovalbumin; test: Adjuvant character in emulsion (FIA): delayed hypersensitivity and specific anti-bodies to ovalbumin; assay type: in vivo, Hartley males; details: 100 μg where printed, no dose given for the methyl ester; for φ mm induration after 48 h: delayed hypersensitivity to 0.025 mg ovalbumin intradermal, 18 days after immunisation with 1 mg ovalbumin in FIA emulsion; for antibodies Log2 μg/ml: serum 21 days after injection, nitrogen precipitatable by ovalbumin, 1 mg ovalbumin in FIA emulsion
Experimental: The tests were carried out on batches of 6 Hartley males of 350 g. The administration was done by intradermal injection into the plantar pad of each of the rear paws. Ovalbumin (constituting the antigen) in the proportion of 1 mg is prepared in 0.1 ml of an emulsion of saline isotonic solution, in an oily phase constituted by the Freund incomplete adjuvant (FIA).
Eighteen days after this immunisation, possible delayed hypersensitivity reactions (HSR) to the antigen were sought by injecting by the intradermal route 0.025 mg of ovalbumin in the side of the animals, […] The diameter in millimiters of the reaction so-caused was measured.
Twenty one days after the injection, the animals were bled. In the serum collected, the contents of specific anti-bodies of the ovalbumin was measured by precipitation of the antibody-antigen complex in the equivalent zone. The amount of protein nitrogen contained in this precipitate was devaluated by the Folin method. The mean values of the contents of antibodies are indicated in the Table of results by the logarithm to base 2. These values express the amount, in micrograms of nitrogen precipitatable by the antigen, per millimiter of serum.

[3] = test system: rabbit; details: in vivo
From the text: In addition, the eventuality of a pyrogenic effect in the rabbit was sought, by following the protocol of the European Pharmacopoea, Vol. 2, 1971, pages 58-60.

Compound | Log2 hemagglutinating titer, Primary response D 28 [1] | Log2 hemagglutinating titer, Secondary response D 36 [1] | φ mm induration after 48 h [2] | antibodies Log2 μg/ml [2] | pyrogenic character [3]
CC(=O)N[C@@H]1[C@@H](O[C@H](C)C(=O)N[C@@H](C)C(=O)N[C@H](CCC(=O)O)C(N)=O)[C@H](O)[C@@H](CO)O[C@H]1O [MDP, reference compound] | 3.64 | 8.34 ± 1.34 | 11.5 ± 2.5 mm | 12.31 ± 1.01 Log2 μg/ml | –
N-acetyl-muramyl-N-methyl-L-alanyl-D-glutamine-methyl-ester [MDP-(N--methyl-Ala)--OCH3] | – | 5.11 | 5 ± 2 mm | 10.11 ± 0.6 Log2 μg/ml | absence of a pyrogenic character
N-acetyl-muramyl-N-methyl-L-alanyl-D-isoglutamine [MDP-(N--methyl-Ala)] | 4.64 | 9.27 ± 1.19 | 14 ± 0.8 mm | 12.51 ± 0.88 Log2 μg/ml | absence of a pyrogenic character
